“Also recorded” adds a separate entry of the source.
Columns and labels:
Type in all cases: biochemical
[1] = test system: SARS-COV-2 total protease; assay: High throughput FRET screening of fluorogenic dipeptide substrates; conditions: for Relative fluorescence (change in the fluorescence signal in the presence of SARS-COV-2 protease): relative to FITC-Ahx-H-d-K(Dabcyl) = 100, ex 485 nm, em 535 nm; for Relative fluorescence (change in the fluorescence signal in the presence of SARS-COV-2 protease) / Fluorescence intensity increase relative to H-d peptide: 37° C.; for Fluorescence intensity increase relative to H-d peptide: H-d set as relative scale of 100%
[2] = test system: SARS-COV-2 live virus (protease); assay: Real-time fluorescence kinetics and detection limit of FRET substrate with live virus
[3] = test system: MERS-COV protease (viral particles)

Substance: FITC-Ahx-R-h-K(Dabcyl) [reference compound]
- Increase in the fluorescence intensity in the presence of SARS-COV-2 protease ([1]; incubated at 37° C., after 3 hours): insignificant increase; also recorded: very minimum fluorescence change

Substance: FITC-Ahx-R-d-K(Dabcyl)
- Relative fluorescence (change in the fluorescence signal in the presence of SARS-COV-2 protease) [1]: 67

Substance: FITC-Ahx-K-d-K(Dabcyl)
- Relative fluorescence (change in the fluorescence signal in the presence of SARS-COV-2 protease) [1]: 47

Substance: FITC-Ahx-H-d-K(Dabcyl)
- Fluorescence intensity increase relative to H-d peptide [1]: 100%
- Relative fluorescence (change in the fluorescence signal in the presence of SARS-COV-2 protease) [1]: 100
- Change in the fluorescence signal of the substrate [2]: no significant change
- Fraction of the reaction completed within 30 minutes [2]: more than 50%
- Time after which the fluorescence curve plateaus [2]: 1.5 h
- Increase in the fluorescence intensity in the presence of MERS-COV virus [3]: less than 20%

Substance: FITC-Ahx-F-R-K(Dabcyl)
- Fluorescence intensity increase relative to H-d peptide [1]: 82%
- Relative fluorescence (change in the fluorescence signal in the presence of SARS-COV-2 protease) [1]: 82

Substance: FITC-Ahx-K-K-K(Dabcyl)
- Relative fluorescence (change in the fluorescence signal in the presence of SARS-COV-2 protease) [1]: 62

Substance: FITC-Ahx-E-d-K(Dabcyl)
- Relative fluorescence (change in the fluorescence signal in the presence of SARS-COV-2 protease) [1]: 58

Substance: FITC-Ahx-P-P-K(Dabcyl)
- Relative fluorescence (change in the fluorescence signal in the presence of SARS-COV-2 protease) [1]: 55

From patent US10962529B1 (priority 2020, dated 2021)
